The results in this text go back to ChEMBL document CHEMBL1909046, “DrugMatrix in vitro pharmacology data”.

Assay [1] in a line: DRUGMATRIX: Serotonin (5-Hydroxytryptamine) 5-HT3 radioligand binding (ligand: [3H] GR-65630). The conditions noted are these: hek293; Not Active = under 50% inhibition at 10 µM. It is filed as cell membranes, Membrane.
The target in assay [2] is T1, 5-hydroxytryptamine receptor 1A (Rattus norvegicus, UniProt P19327). Note: in other assays of this panel Not Active means under 50% inhibition at 10 µM.
T1 sequence (P19327 whole entry): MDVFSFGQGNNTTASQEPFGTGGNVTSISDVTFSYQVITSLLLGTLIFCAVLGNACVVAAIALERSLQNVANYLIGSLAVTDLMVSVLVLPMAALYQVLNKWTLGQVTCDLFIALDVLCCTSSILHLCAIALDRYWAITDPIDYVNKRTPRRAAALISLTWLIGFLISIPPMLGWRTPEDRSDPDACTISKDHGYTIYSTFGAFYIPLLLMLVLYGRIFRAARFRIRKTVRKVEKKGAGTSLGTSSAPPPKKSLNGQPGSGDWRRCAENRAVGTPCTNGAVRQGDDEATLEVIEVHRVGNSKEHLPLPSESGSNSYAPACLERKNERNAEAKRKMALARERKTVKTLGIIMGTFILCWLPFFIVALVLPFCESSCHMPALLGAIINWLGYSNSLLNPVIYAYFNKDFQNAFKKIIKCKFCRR
It is filed as cell membranes, CHO-K1, Membrane.

For assay [3], the target named is T2, Muscarinic acetylcholine receptor M5 (Homo sapiens, UniProt P08912). Note: in other assays of this panel Not Active means under 50% inhibition at 10 µM.
T2 sequence (P08912 whole entry): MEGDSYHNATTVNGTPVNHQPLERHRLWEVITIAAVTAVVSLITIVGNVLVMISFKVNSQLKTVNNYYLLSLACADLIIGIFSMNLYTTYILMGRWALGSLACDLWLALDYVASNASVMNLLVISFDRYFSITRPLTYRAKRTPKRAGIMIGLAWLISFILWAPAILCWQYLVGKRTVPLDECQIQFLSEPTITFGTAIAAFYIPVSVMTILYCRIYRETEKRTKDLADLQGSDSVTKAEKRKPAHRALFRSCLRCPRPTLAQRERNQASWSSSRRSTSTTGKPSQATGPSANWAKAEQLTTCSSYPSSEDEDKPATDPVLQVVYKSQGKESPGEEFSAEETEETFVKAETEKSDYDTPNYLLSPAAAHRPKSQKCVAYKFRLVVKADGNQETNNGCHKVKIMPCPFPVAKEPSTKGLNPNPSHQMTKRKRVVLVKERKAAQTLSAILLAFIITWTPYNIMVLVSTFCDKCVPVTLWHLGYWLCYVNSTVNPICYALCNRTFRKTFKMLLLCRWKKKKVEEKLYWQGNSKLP
It is filed as cell membranes, CHO-K1, Membrane.

Another assay concerns the target T3, Substance-K receptor (Homo sapiens, UniProt P21452). Note: in other assays of this panel Not Active means under 50% inhibition at 10 µM.
T3 sequence (P21452 whole entry): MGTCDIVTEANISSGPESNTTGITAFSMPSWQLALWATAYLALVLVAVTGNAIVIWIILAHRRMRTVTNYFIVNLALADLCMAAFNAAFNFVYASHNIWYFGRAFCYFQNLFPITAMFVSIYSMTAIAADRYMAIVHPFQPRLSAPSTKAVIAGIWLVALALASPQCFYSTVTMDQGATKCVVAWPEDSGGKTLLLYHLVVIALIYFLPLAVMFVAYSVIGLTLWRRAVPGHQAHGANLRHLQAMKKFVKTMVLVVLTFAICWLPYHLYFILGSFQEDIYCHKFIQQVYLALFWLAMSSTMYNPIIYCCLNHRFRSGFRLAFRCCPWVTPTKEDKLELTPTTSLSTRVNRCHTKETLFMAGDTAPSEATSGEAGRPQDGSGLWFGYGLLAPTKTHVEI
It is filed as cell membranes, CHO, Membrane.

For assay [4], the target named is Sodium-dependent noradrenaline transporter (Homo sapiens, UniProt P23975). Put plainly: DRUGMATRIX: Norepinephrine Transporter radioligand binding (ligand: [125I] RTI-55). It is filed as cell membranes, MDCK, Membrane. The conditions noted are these: Not Active = under 50% inhibition at 10 µM.
Assay [5] has as its target Protein kinase C alpha type (Homo sapiens, UniProt P17252). It is filed as cell-based. The note with it: sf9.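 Note: inhibition of PKCalpha kinase activity measured in an enzyme assay with histone as the phosphorylation substrate; in other assays of this panel Not Active means under 50% inhibition at 10 µM.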

Sequence of Sodium-dependent noradrenaline transporter (P23975 whole entry): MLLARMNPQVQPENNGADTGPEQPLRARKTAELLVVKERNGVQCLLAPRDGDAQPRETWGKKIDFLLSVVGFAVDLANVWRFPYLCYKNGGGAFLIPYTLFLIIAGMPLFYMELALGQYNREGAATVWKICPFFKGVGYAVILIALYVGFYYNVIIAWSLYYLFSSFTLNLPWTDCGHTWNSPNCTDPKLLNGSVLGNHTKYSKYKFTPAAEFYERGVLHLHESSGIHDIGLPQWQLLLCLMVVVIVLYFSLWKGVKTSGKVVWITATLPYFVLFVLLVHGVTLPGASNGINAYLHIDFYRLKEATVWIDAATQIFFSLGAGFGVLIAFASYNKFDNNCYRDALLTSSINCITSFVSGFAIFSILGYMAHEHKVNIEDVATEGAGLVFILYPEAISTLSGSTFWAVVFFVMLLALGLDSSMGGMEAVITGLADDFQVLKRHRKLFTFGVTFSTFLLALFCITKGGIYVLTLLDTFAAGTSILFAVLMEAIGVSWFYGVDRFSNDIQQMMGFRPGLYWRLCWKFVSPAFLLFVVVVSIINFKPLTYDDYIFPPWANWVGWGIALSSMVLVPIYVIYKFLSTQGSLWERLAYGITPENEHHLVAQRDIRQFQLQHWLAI

Take `CC1(COc2ccc(CC3SC(=O)NC3=O)cc2)CCCCC1` (centres undefined) [CIGLITAZONE]: the IC50 entry in assay [1] was “Not Active”; in assay [2] (cho-k1), “Not Active”; in assay [3] (cho-k1) it was “Not Active”; at Substance-K receptor (read-out: IC50) it was 12600 nM; in assay [4] (read-out: IC50) it was 2220 nM; in assay [5], “Not Active”. Also, the Ki result is “Not Active” in assay [1], 4190 nM on Substance-K receptor (read-out: Ki) and 2200 nM in assay [4] (read-out: Ki).

As to `OC[C@H]1O[C@@H]2O[C@H]3[C@H](O)[C@@H](O)[C@@H](O[C@H]4[C@H](O)[C@@H](O)[C@@H](O[C@H]5[C@H](O)[C@@H](O)[C@@H](O[C@H]6[C@H](O)[C@@H](O)[C@@H](O[C@H]7[C@H](O)[C@@H](O)[C@@H](O[C@H]8[C@H](O)[C@@H](O)[C@@H](O[C@H]1[C@H](O)[C@H]2O)O[C@@H]8CO)O[C@@H]7CO)O[C@@H]6CO)O[C@@H]5CO)O[C@@H]4CO)O[C@@H]3CO` [BETADEX], the IC50 result (in assay [1]; in assay [2] (cho-k1); in assay [3] (cho-k1); against Substance-K receptor (cho); in assay [4] (mdck); in assay [5]) was “Not Active” throughout. In addition, the Ki entry in assay [1] is reported as “Not Active”.

For `COc1ccc(Cl)cc1C(=O)NCCc1ccc(S(=O)(=O)NC(=O)NC2CCCCC2)cc1` [GLYBURIDE], the IC50 entry (in assay [1]; in assay [2] (cho-k1); in assay [3] (cho-k1); at Substance-K receptor (cho); in assay [4] (mdck); in assay [5]) was “Not Active” in each case. Besides, the Ki entry in assay [1] is given as “Not Active”.

Consider `COC(=O)Nc1nc2ccc(Sc3ccccc3)cc2[nH]1` [FENBENDAZOLE], for which the IC50 result (in assay [1]; in assay [2] (cho-k1); in assay [3] (cho-k1); at Substance-K receptor (cho); in assay [4] (mdck); in assay [5]) was “Not Active” in each case. In addition, in assay [1], the Ki entry is given as “Not Active”.

For `C=CCO` [ALLYL ALCOHOL], the IC50 entry (in assay [1]; in assay [2] (cho-k1); in assay [3] (cho-k1); against Substance-K receptor (cho); in assay [4] (mdck); in assay [5]) was “Not Active” in each case. Besides, in assay [1], the Ki entry was “Not Active”.

Consider CARBOXYMETHYLCELLULOSE, for which the IC50 entry (in assay [1]; in assay [2] (cho-k1); in assay [3] (cho-k1); at Substance-K receptor (cho); in assay [4] (mdck); in assay [5]) was “Not Active” in each case. In addition, the Ki entry (in assay [1]; in assay [2] (cho-k1); in assay [3] (cho-k1); at Substance-K receptor (cho); in assay [4] (mdck); in assay [5]) was “Not Active” each time.

`C=CCN1CC[C@]23c4c5ccc(O)c4O[C@H]2/C(=N/N=C2\CC[C@@]4(O)[C@H]6Cc7ccc(O)c8c7[C@@]4(CCN6CC=C)[C@H]2O8)CC[C@@]3(O)[C@H]1C5` [NALOXONAZINE]: the IC50 result (in assay [1]; in assay [2] (cho-k1); in assay [3] (cho-k1); on Substance-K receptor (cho); in assay [4] (mdck); in assay [5]) was “Not Active” in each case. For the same molecule, the Ki entry in assay [1] is “Not Active”.

For the molecule `Cc1ccnc2c1NC(=O)c1cccnc1N2C1CC1` [NEVIRAPINE], the IC50 entry (in assay [1]; in assay [2] (cho-k1); in assay [3] (cho-k1); on Substance-K receptor (cho); in assay [4] (mdck); in assay [5]) was “Not Active” each time. Also, the Ki result in assay [1] is given as “Not Active”.

For `NCC(CC(=O)O)c1ccc(Cl)cc1` (centres undefined) [BACLOFEN], the IC50 entry (in assay [1]; in assay [2] (cho-k1); in assay [3] (cho-k1); at Substance-K receptor (cho); in assay [4] (mdck); in assay [5]) was “Not Active” each time. Also, in assay [1], the Ki result was “Not Active”.

For `CO[C@H]1O[C@@H]2O[C@@]3(C)CC[C@H]4[C@H](C)CC[C@@H]([C@H]1C)[C@@]24OO3`, the IC50 result (in assay [1]; in assay [2] (cho-k1); in assay [3] (cho-k1); against Substance-K receptor (cho); in assay [4] (mdck); in assay [5]) was “Not Active” in each case. Further, in assay [1], the Ki result is “Not Active”.

Regarding `CC(CN1c2ccccc2Sc2ccccc21)N(C)C` (centres undefined) [PROMETHAZINE], the IC50 entry is “Not Active” in assay [1]; 2600 nM in assay [2] (read-out: IC50); 4.6 nM in assay [3] (read-out: IC50); “Not Active” against Substance-K receptor (cho); 4240 nM in assay [4] (read-out: IC50); “Not Active” in assay [5]. In addition, the Ki result in assay [1] is “Not Active”; in assay [2] (read-out: Ki) it was 1480 nM; in assay [3] (read-out: Ki), 3.31 nM; in assay [4] (read-out: Ki), 4200 nM.

As for `O=C(O)CNCP(=O)(O)O` [GLYPHOSATE], the IC50 entry (in assay [1]; in assay [2] (cho-k1); in assay [3] (cho-k1); on Substance-K receptor (cho); in assay [4] (mdck); in assay [5]) was “Not Active” throughout. Further, the inhibition constant Ki entry in assay [1] is on record as “Not Active”.
